These results are taken from patent publication US20100273772A1, “Bisaryl Alkynylamides as Negative Allosteric Modulators of Metabotropic Glutamate Receptor 5 (MGLUR5)” (Wyeth LLC, priority 2009, published 2010).

Structures are written as SMILES.

In experiment [1] the target is T1, metabotropic glutamate receptor 5 (Rattus norvegicus, UniProt P31424).
T1 construct: expressed in transfected cells; host or cells: HEK-293
In words: FLIPR Calcium 3 fluorescence-based functional assay of intracellular calcium, mGluR5 antagonist activity. Type of experiment: cell-based. The settings on record: inhibition of glutamate (EC90, ~50 uM) stimulated calcium levels, mGluR5 HEK-293 cells; read-out: mGluR5 FLIPR MP Antagonist DR IC50. The method in brief: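 mGluR5 HEK-293 cells (50,000/well, plated overnight) are loaded with FLIPR Calcium 3 dye for 1 h at 37 °C. Compound is added and fluorescence recorded on FLIPR. Inhibition of the glutamate-stimulated calcium signal is given as %, with IC50 from a 4-parameter logistic fit.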
In general terms: Calcium flux is commonly read through the fluorescence of an indicator in the cells.

For the next experiment, the target named is T2, rat mGluR5 receptor (Rattus norvegicus, UniProt P31424).
T2 construct: expressed in transfected cells; host or cells: HEK-293
In words: [3H]-MPEP binding HEK-293 cell membranes expressing a rat mGluR5 receptor. The settings on record: displacement of 4 nM [3H]-MPEP, HEK-293 cell membranes expressing rat mGluR5, 60 minute at room temperature; read-out: mGluR5 Ligand Binding DR Ki. In outline: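 Membranes from HEK-293 cells expressing rat mGluR5 incubated 60 min at room temperature in 50 mM Tris pH 7.5 with 4 nM [3H]-MPEP; 10 μM MPEP defines non-specific binding; filtration read-out. Single-point % inhibition at 10 μM, then Ki from IC50 via Cheng-Prusoff for actives.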

For orientation: IC50 means the concentration needed to halve the response being measured. One may read the Ki as the equilibrium dissociation constant of an inhibitor or competing ligand from its target.

T1 sequence (P31424 21-1203): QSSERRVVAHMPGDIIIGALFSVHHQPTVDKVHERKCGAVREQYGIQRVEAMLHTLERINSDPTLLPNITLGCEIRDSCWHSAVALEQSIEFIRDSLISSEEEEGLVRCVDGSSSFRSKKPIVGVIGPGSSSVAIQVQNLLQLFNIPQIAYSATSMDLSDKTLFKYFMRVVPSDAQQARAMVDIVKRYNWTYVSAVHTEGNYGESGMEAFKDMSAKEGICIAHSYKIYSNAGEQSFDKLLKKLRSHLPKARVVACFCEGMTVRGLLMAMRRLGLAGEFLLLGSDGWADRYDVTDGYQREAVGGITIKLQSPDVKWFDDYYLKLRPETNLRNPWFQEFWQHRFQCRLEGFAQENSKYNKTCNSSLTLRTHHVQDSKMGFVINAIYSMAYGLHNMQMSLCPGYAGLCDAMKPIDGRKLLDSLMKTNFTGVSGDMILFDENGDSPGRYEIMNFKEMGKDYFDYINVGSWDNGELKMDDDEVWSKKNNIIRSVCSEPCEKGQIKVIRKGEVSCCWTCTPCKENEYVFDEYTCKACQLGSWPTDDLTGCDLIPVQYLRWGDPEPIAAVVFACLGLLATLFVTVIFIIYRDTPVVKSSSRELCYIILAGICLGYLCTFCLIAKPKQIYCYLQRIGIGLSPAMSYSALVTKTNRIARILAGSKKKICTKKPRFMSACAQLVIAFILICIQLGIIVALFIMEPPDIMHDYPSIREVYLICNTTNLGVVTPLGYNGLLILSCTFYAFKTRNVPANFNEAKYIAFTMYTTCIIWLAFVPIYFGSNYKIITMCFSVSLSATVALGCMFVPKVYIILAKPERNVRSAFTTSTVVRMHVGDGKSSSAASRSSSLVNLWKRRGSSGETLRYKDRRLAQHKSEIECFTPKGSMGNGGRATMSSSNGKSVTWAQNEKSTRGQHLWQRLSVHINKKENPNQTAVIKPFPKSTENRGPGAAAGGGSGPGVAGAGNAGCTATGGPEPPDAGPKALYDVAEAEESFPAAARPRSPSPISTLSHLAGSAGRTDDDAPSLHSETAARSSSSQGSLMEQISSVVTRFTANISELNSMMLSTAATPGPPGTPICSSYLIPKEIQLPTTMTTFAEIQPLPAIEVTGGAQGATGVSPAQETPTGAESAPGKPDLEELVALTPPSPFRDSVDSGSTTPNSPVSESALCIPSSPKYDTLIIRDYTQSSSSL
T2 sequence (P31424 21-1203): as above

In the case of `CCOc1ccc(C(=O)N2CCc3ccccc3C2)cc1C#Cc1ccccn1` [Example 75, 2-[4-Ethoxy-3-(pyridin-2-ylethynyl)benzoyl]-1,2,3,4-tetrahydroisoquinoline], in experiment [1], the IC50 was 11 nM. For the same molecule, the Ki on rat mGluR5 receptor came out at 3 nM.
As to `CCOc1ccc(C(=O)N2CCc3ccc(Cl)cc3C2)cc1C#Cc1ccccn1` [Example 76, 7-chloro-2-[4-ethoxy-3-(pyridin-2-ylethynyl)benzoyl]-1,2,3,4-tetrahydroisoquinoline], the IC50 in experiment [1] amounted to 42 nM. Further, the inhibition constant (Ki) at rat mGluR5 receptor turned out to be 1 nM.
In the case of `CCOc1ccc(C(=O)N2CCc3c(Cl)cccc3C2)cc1C#Cc1ccccn1` [Example 77, 5-chloro-2-[4-ethoxy-3-(pyridin-2-ylethynyl)benzoyl]-1,2,3,4-tetrahydroisoquinoline], in experiment [1], the IC50 was 41 nM. Moreover, on rat mGluR5 receptor, the Ki was determined as 1 nM.
For `CCOc1ccc(C(=O)N2Cc3ccccc3C2)cc1C#Cc1ccccn1` [Example 78, 2-[4-ethoxy-3-(pyridin-2-ylethynyl)benzoyl]isoindoline] the same measures were 12 nM and 5 nM.
On to `O=C(c1ccc(OCC2CC2)c(C#Cc2ccccn2)c1)N1CCc2ccccc2C1` [Example 79, 2-{[4-(Cyclopropylmethoxy)-3-(pyridin-2-ylethynyl)phenyl]carbonyl}-1,2,3,4-tetrahydroisoquinoline], for which the half-inhibitory concentration (IC50) in experiment [1] is 34 nM. Further, the Ki at rat mGluR5 receptor was 23 nM.
Turning to `Cc1ccc(C(=O)N2Cc3ccccc3C2)cc1C#Cc1ccccn1` [Example 81, 2-[4-Methyl-3-(pyridin-2-ylethynyl)benzoyl]isoindoline], in experiment [1], the IC50 was 26 nM. Besides, at rat mGluR5 receptor, the Ki was found to be 1 nM.
As to `Cc1ccc(C(=O)N2CCc3ccccc3C2)cc1C#Cc1ccccn1` [Example 82, 2-[4-Methyl-3-(pyridin-2-ylethynyl)benzoyl]-1,2,3,4-tetrahydroisoquinoline], in experiment [1], the IC50 amounted to 27 nM. The inhibition constant (Ki) on rat mGluR5 receptor was 1 nM.
For `Cc1ccc(C(=O)N2CCc3ccc(Cl)cc3C2)cc1C#Cc1ccccn1` [Example 83, 7-chloro-2-[4-methyl-3-(pyridin-2-ylethynyl)benzoyl]-1,2,3,4-tetrahydroisoquinoline] the same measures were 30 nM and 0.3 nM.
For `Cc1ccc(C(=O)N2CCc3c(Cl)cccc3C2)cc1C#Cc1ccccn1` [Example 84, 5-chloro-2-[4-methyl-3-(pyridin-2-ylethynyl)benzoyl]-1,2,3,4-tetrahydroisoquinoline] the same measures were 48 nM and 0.3 nM.
For `Cc1ccc(C(=O)N2CCc3ncccc3C2)cc1C#Cc1ccccn1` [Example 85, 6-{[4-Methyl-3-(pyridin-2-ylethynyl)phenyl]carbonyl}-5,6,7,8-tetrahydro-1,6-naphthyridine] the same measures were 6 nM and 4 nM.
For `Cc1ccc(C(=O)N2CCc3cccnc3C2)cc1C#Cc1ccccn1` [Example 86, 7-{[4-Methyl-3-(pyridin-2-ylethynyl)phenyl]carbonyl}-5,6,7,8-tetrahydro-1,7-naphthyridine], in experiment [1], the IC50 is 8 nM. The inhibitory constant (Ki) on rat mGluR5 receptor came out at 11 nM.
For `Cc1ccc(C(=O)N2CCc3nc[nH]c3C2)cc1C#Cc1ccccn1` [Example 87, 5-{[4-methyl-3-(pyridin-2-ylethynyl)phenyl]carbonyl}-4,5,6,7-tetrahydro-3H-imidazo[4,5-c]pyridine] the same measures were 2 nM and 14 nM.
With `Cc1ccc(C(=O)N2CCc3[nH]ncc3C2)cc1C#Cc1ccccn1` [Example 88, 5-{[4-methyl-3-(pyridin-2-ylethynyl)phenyl]carbonyl}-4,5,6,7-tetrahydro-1H-pyrazolo[4,3-c]pyridine], the half-inhibitory concentration (IC50) in experiment [1] turned out to be 4 nM. The Ki on rat mGluR5 receptor amounted to 6 nM.
For the molecule `Cc1nc2c(s1)CN(C(=O)c1ccc(C)c(C#Cc3ccccn3)c1)CC2` [Example 89, 2-methyl-5-{[4-methyl-3-(pyridin-2-ylethynyl)phenyl]carbonyl}-4,5,6,7-tetrahydro[1,3]thiazolo[5,4-c]pyridine], the IC50 in experiment [1] was found to be 4 nM. The Ki on rat mGluR5 receptor worked out at 4 nM.
Consider `Cc1nc2c(o1)CCN(C(=O)c1ccc(C)c(C#Cc3ccccn3)c1)C2` [Example 90, 2-methyl-5-{[4-methyl-3-(pyridin-2-ylethynyl)phenyl]carbonyl}-4,5,6,7-tetrahydro[1,3]oxazolo[4,5-c]pyridine], for which the concentration for half-maximal inhibition (IC50) in experiment [1] stood at 9 nM. Besides, on rat mGluR5 receptor, the Ki is 16 nM.
With `Cc1ccc(C(=O)N2Cc3cccnc3C2)cc1C#Cc1ccccn1` [Example 91, 6-{[4-methyl-3-(pyridin-2-ylethynyl)phenyl]carbonyl}-6,7-dihydro-5H-pyrrolo[3,4-b]pyridine], the IC50 in experiment [1] worked out at 4 nM. For the same molecule, on rat mGluR5 receptor, the Ki came out at 6 nM.
For the molecule `O=C(c1ccc(C(F)(F)F)c(C#Cc2ccccn2)c1)N1Cc2cccnc2C1` [Example 92, 6-{[3-(Pyridin-2-ylethynyl)-4-(trifluoromethyl)phenyl]carbonyl}-6,7-dihydro-5H-pyrrolo[3,4-b]pyridine], in experiment [1], the 50% inhibitory concentration (IC50) came to 7 nM. Also, the Ki on rat mGluR5 receptor was determined as 3 nM.
For `O=C(c1ccc(C(F)(F)F)c(C#Cc2ccccn2)c1)N1CCc2ccccc2C1` [Example 93, 2-{[3-(Pyridin-2-ylethynyl)-4-(trifluoromethyl)phenyl]carbonyl}-1,2,3,4-tetrahydroisoquinoline], in experiment [1], the IC50 stood at 42 nM. Further, the Ki at rat mGluR5 receptor is 2 nM.
With `O=C(c1ccc(C(F)(F)F)c(C#Cc2ccccn2)c1)N1CCc2ccc(Cl)cc2C1` [Example 94, 7-Chloro-2-{[3-(pyridin-2-ylethynyl)-4-(trifluoromethyl)phenyl]carbonyl}-1,2,3,4-tetrahydroisoquinoline], in experiment [1], the IC50 amounted to 152 nM. Also, the inhibition constant Ki at rat mGluR5 receptor stood at 2 nM.
In the case of `O=C(c1ccc(C(F)(F)F)c(C#Cc2ccccn2)c1)N1CCc2c(Cl)cccc2C1` [Example 95, 5-Chloro-2-{[3-(pyridin-2-ylethynyl)-4-(trifluoromethyl)phenyl]carbonyl}-1,2,3,4-tetrahydroisoquinoline], the 50% inhibitory concentration (IC50) in experiment [1] was 163 nM. Besides, the Ki on rat mGluR5 receptor is 4 nM.
On to `O=C(c1ccc(C(F)(F)F)c(C#Cc2ccccn2)c1)N1Cc2ccccc2C1` [Example 96, 2-{[3-(Pyridin-2-ylethynyl)-4-(trifluoromethyl)phenyl]carbonyl}-2,3-dihydro-1H-isoindole], for which the 50% inhibitory concentration (IC50) in experiment [1] stood at 69 nM. Further, the inhibition constant Ki at rat mGluR5 receptor stood at 5 nM.
Regarding `O=C(c1ccc(C(F)(F)F)c(C#Cc2ccccn2)c1)N1CCc2ncc(Br)cc2C1` [Example 97, 3-Bromo-6-{[3-(pyridin-2-ylethynyl)-4-(trifluoromethyl)phenyl]carbonyl}-5,6,7,8-tetrahydro-1,6-naphthyridine], the IC50 in experiment [1] was 13 nM. The Ki on rat mGluR5 receptor is 1 nM.
For the molecule `O=C(c1ccc(C(F)(F)F)c(C#Cc2ccccn2)c1)N1CCc2ncccc2C1` [Example 98, 6-{[3-(Pyridin-2-ylethynyl)-4-(trifluoromethyl)phenyl]carbonyl}-5,6,7,8-tetrahydro-1,6-naphthyridine], the half-inhibitory concentration (IC50) in experiment [1] was 7 nM. In addition, the Ki on rat mGluR5 receptor was 4 nM.
On to `O=C(c1ccc(C(F)(F)F)c(C#Cc2ccccn2)c1)N1CCc2[nH]ncc2C1` [Example 100, 5-{[3-(Pyridin-2-ylethynyl)-4-(trifluoromethyl)phenyl]carbonyl}-4,5,6,7-tetrahydro-1H-pyrazolo[4,3-c]pyridine], for which the concentration for half-maximal inhibition (IC50) in experiment [1] worked out at 5 nM. For the same molecule, at rat mGluR5 receptor, the inhibition constant (Ki) is 4 nM.
`O=C(c1ccc(C(F)(F)F)c(C#Cc2ccccn2)c1)N1CCc2[nH]cnc2C1` [Example 101, 5-{[3-(Pyridin-2-ylethynyl)-4-(trifluoromethyl)phenyl]carbonyl}-4,5,6,7-tetrahydro-1H-imidazo[4,5-c]pyridine]: the IC50 in experiment [1] came to 18 nM. Further, at rat mGluR5 receptor, the inhibition constant Ki turned out to be 36 nM.
